# Target: T1, rat B1R (bradykinin receptor 1) (Rattus norvegicus, UniProt P97583)
# T1 construct: expressed in transfected cells; host or cells: CHO K1 cells
# T1 sequence (P97583 1-337): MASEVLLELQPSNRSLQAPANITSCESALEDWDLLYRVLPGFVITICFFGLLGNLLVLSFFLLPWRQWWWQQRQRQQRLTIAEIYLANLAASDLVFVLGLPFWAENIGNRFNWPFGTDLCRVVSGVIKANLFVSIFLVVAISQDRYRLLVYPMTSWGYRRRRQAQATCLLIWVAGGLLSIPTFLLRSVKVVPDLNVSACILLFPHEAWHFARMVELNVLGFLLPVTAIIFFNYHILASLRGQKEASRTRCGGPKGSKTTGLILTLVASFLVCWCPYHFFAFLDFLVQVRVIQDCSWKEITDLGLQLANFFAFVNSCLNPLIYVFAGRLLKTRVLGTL
# Assay: FLIPR Ca2+ assay (Fluo-4) on CHO K1 cells stably transfected with the B1R gene of the rat (rB1R cells): % inhibition at 10 μM / IC50, agonist Des-Arg9-bradykinin
# Assay type: cell-based
# Conditions: CHO-K1, rat B1R
# Description: The agonistic or antagonistic action of substances can be quantified on the bradykinin receptor 1 (B1R) of the human and rat species with ectopically expressing cell lines (CHO K1 cells) and with the aid of a Ca^2+-sensitive dyestuff (Fluo-4) in a fluorescent imaging plate reader (FLIPR). The figure in % activation is based on the Ca^2+ signal after addition of Lys-Des-Arg^9-bradykinin (0.5 nM) or Des-Arg^9-bradykinin (100 nM). Antagonists lead to a suppression of the Ca^2+ inflow after addition of the agonist. % inhibition compared with the maximum achievable inhibition is stated.
# The agonistic or antagonistic action of substances can be determined on the bradykinin receptor 1 (B1R) of the human and rat species with the following assay. In accordance with this assay, the Ca^2+ inflow through the channel is quantified with the aid of a Ca^2+-sensitive dyestuff (type Fluo-4, Molecular Probes Europe BV, Leiden, Holland) in a fluorescent imaging plate reader (FLIPR, Molecular Devices, Sunnyvale, USA).
# Chinese hamster ovary cells (CHO K1 cells) transfected stably with the human B1R gene (hB1R cells) or the B1R gene of the rat (rB1R cells) are used. For functional studies, these cells are plated out on black 96-well plates with a clear base (BD Biosciences, Heidelberg, Germany or Greiner, Frickenhausen, Germany) in a density of 20,000-35,000 cells/well. The cells are left overnight at 37° C. and 5% CO2 in culture medium (hB1R cells: Nutrient Mixture Ham's F12, Gibco Invitrogen GmbH, Karlsruhe, Germany or DMEM, Sigma-Aldrich, Taufkirchen, Germany; rB1R cells: D-MEM/F12, Gibco Invitrogen GmbH, Karlsruhe, Germany) with 10 vol. % FBS (foetal bovine serum, Gibco Invitrogen GmbH, Karlsruhe, Germany or PAN Biotech GmbH, Aidenbach, Germany). On the following day, the cells are loaded for 60 min at 37° C. with 2.13 μM Fluo-4 (Molecular Probes Europe BV, Leiden Holland) in HBSS buffer (Hank's buffered saline solution, Gibco Invitrogen GmbH, Karlsruhe, Germany) with 2.5 mM probenecid (Sigma-Aldrich, Taufkirchen, Germany) and 10 mM HEPES (Sigma-Aldrich, Taufkirchen, Germany). The plates are then washed 2× with HBSS buffer, and HBSS buffer which additionally contains 0.1% BSA (bovine serum albumin; Sigma-Aldrich, Taufkirchen, Germany), 5.6 mM glucose and 0.05% gelatine (Merck KGaA, Darmstadt, Germany) is added. After a further incubation of 20 minutes at room temperature, the plates are inserted into the FLIPR for the Ca^2+ measurement. Alternatively, the plates are washed with buffer A (15 mM HEPES, 80 mM NaCl, 5 mM KCl, 1.2 mM CaCl2, 0.7 mM MgSO4, 2 g/l glucose, 2.5 mM probenecid), buffer A is added and the plates are loaded with 2.5 μM Fluo-4 and 0.025% Pluronic F127 (Sigma-Aldrich, Taufkirchen, Germany). Thereafter, the cells are washed 2× with buffer A and incubated for 30 minutes at room temperature with buffer A, which additionally contains 0.05% BSA and 0.05% gelatine, and thereafter inserted into the FLIPR for the Ca^2+ measurement. The Ca^2+-dependent fluorescence is measured here before and after addition of substances (λex=488 nm, λem=540 nm). Quantification is by measurement of the highest fluorescence intensity (FC, fluorescence counts) over time.
# The FLIPR protocol consists of 2 additions of substance. Test substances (10 μM) are first pipetted on to the cells and the Ca^2+ inflow is compared with the control (hB1R: Lys-Des-Arg^9-bradykinin>=50 nM; rB1R: Des-Arg^9-bradykinin 10 μM). This gives the result in % activation based on the Ca^2+ signal after addition of Lys-Des-Arg^9-bradykinin (>=50 nM) or Des-Arg^9-bradykinin (10 μM). After incubation for 10-20 minutes, Lys-Des-Arg^9-bradykinin (hB1R) or Des-Arg^9-bradykinin (rB1R) in the concentration of the EC80 is applied and the inflow of Ca^2+ is likewise determined. Antagonists lead to a suppression of the Ca^2+ inflow. % inhibition compared with the maximum achievable inhibition is calculated.
# For determination of the IC50 value, the substances are added in various concentrations. […]
row,Molecule,inhibition at 10 µM
1,"CC(C)CN1CCC2(CC1)CCN(C(=O)c1ccc3c(c1)C(NC(=O)c1cc(C(F)(F)F)ccc1Cl)CC3)C2 (stereo not shown) [IND_CC-687, 2-Chloro-N-[6-[8-(2-methyl-propyl)-2,8-diazaspiro[4.5]decane-2-carbonyl]-2,3-dihydro-1H-inden-1-yl]-5-(trifluoromethyl)-benzamide]",76%
2,"O=C(NC1CCc2ccc(C(=O)N3CCC4(CCN(Cc5ccc6nccnc6c5)CC4)CC3)cc21)c1cccc(Cl)c1Cl (stereo not shown) [IND_CC-755, 2,3-Dichloro-N-[6-[9-(quinoxalin-6-yl-methyl)-3,9-diazaspiro[5.5]undecane-3-carbonyl]-2,3-dihydro-1H-inden-1-yl]-benzamide]",92%
3,"Cn1ccc2c(S(=O)(=O)N3CCC4(CCN(C(=O)c5ccc6c(c5)C(NC(=O)c5ccccc5Cl)CC6)CC4)CC3)cccc21 (stereo not shown) [IND_CC-612, 2-Chloro-N-[6-[9-[(1-methyl-1H-indol-4-yl)sulfonyl]-3,9-diazaspiro[5.5]undecane-3-carbonyl]-2,3-dihydro-1H-inden-1-yl]-benzamide]",65%
4,"N#Cc1cccc(NC(=O)N2CCC3(CC2)CCN(C(=O)c2ccc4c(c2)C(N(C(=O)c2ccccc2Cl)C2CC2)CC4)C3)c1 (stereo not shown) [IND_CC-715, 2-[3-[(2-Chloro-benzoyl)-cyclopropyl-amino]-2,3-dihydro-1H-indene-5-carbonyl]-N-(3-cyano-phenyl)-2,8-diazaspiro[4.5]decane-8-carboxylic acid amide]",79%
5,"N#Cc1ccccc1C(=O)NC1CCc2ccc(C(=O)N3CCC4(CC3)CCN(c3ccc(C(F)(F)F)cc3)CC4)cc21 (stereo not shown) [IND_CC-235, 2-Cyano-N-[6-[9-[4-(trifluoromethyl)-phenyl]-3,9-diazaspiro[5.5]undecane-3-carbonyl]-2,3-dihydro-1H-inden-1-yl]-benzamide]",89%
6,"O=C(NC1CCc2ccc(C(=O)N3CCC4(CCN(C(=O)c5ccc(F)cc5Cl)CC4)C3)cc21)c1sccc1Cl (stereo not shown) [IND_CC-584, 3-Chloro-N-[6-[8-(2-chloro-4-fluoro-benzoyl)-2,8-diazaspiro[4.5]decane-2-carbonyl]-2,3-dihydro-1H-inden-1-yl]-thiophene-2-carboxylic acid amide]",63%
7,"Cc1c(CN2CCC3(CC2)CCN(C(=O)c2ccc4c(c2)C(NC(=O)c2cc(C(F)(F)F)ccc2Cl)CC4)CC3)cnn1C (stereo not shown) [IND_CC-664, 2-Chloro-N-[6-[9-[(1,5-dimethyl-1H-pyrazol-4-yl)-methyl]-3,9-diazaspiro[5.5]-undecane-3-carbonyl]-2,3-dihydro-1H-inden-1-yl]-5-(trifluoromethyl)benzamide]",54%
8,"O=C(NC1CCc2ccc(C(=O)N3CCC4(CCN(Cc5ccc6ncccc6c5)CC4)C3)cc21)c1sccc1Cl (stereo not shown) [IND_CC-570, 3-Chloro-N-[6-[8-(quinolin-6-yl-methyl)-2,8-diazaspiro[4.5]decane-2-carbonyl]-2,3-dihydro-1H-inden-1-yl]-thiophene-2-carboxylic acid amide]",57%
9,"O=C(NC1CCc2ccc(C(=O)N3CCC4(CCN(CC5CCCCC5)CC4)CC3)cc21)c1cc(C(F)(F)F)ccc1Cl (stereo not shown) [IND_CC-700, 2-Chloro-N-[6-[9-(cyclohexyl-methyl)-3,9-diazaspiro[5.5]undecane-3-carbonyl]-2,3-dihydro-1H-inden-1-yl]-5-(trifluoromethyl)-benzamide]",64%

# Other lines, results leading:
row,inhibition at 10 µM,Molecule
1,106%,"Cc1ccccc1C(=O)NC1CCc2ccc(C(=O)N3CCC4(CC3)CCN(c3ccncc3)C4)cc21 (stereo not shown) [IND_CC-347, 2-Methyl-N-[6-(2-pyridin-4-yl-2,8-diazaspiro[4.5]decane-8-carbonyl)-2,3-dihydro-1H-inden-1-yl]-benzamide]"
2,90%,"O=C(NC1CCc2ccc(C(=O)N3CCC4(CCN(C(=O)Nc5ccc(Cl)cc5Cl)CC4)CC3)cc21)c1ccccc1Cl (stereo not shown) [IND_CC-710, 3-[3-[(2-Chloro-benzoyl)amino]-2,3-dihydro-1H-indene-5-carbonyl]-N-(2,4-dichlorophenyl)-3,9-diazaspiro[5.5]undecane-9-carboxylic acid amide]"
3,98%,"CN(C1CCc2ccc(C(=O)N3CCC4(CC3)CCN(c3ccncc3)CC4)cc21)S(=O)(=O)c1ccc(Cl)cc1Cl (stereo not shown) [IND_CC-324, 2,4-Dichloro-N-methyl-N-[6-(9-pyridin-4-yl-3,9-diazaspiro[5.5]undecane-3-carbonyl)-2,3-dihydro-1H-inden-1-yl]-benzenesulfonic acid amide]"
4,104%,"O=C(NC1CCc2ccc(C(=O)N3CCC4(CCN(c5ccncc5)CC4)C3)cc21)c1c(F)cccc1F (stereo not shown) [IND_CC-386, 2,6-Difluoro-N-[6-(8-pyridin-4-yl-2,8-diazaspiro[4.5]decane-2-carbonyl)-2,3-dihydro-1H-inden-1-yl]-benzamide]"
5,62%,"CN(C(=O)c1ccccc1Cl)C1CCc2ccc(C(=O)N3CCC4(CCN(C(=O)c5ccc(F)cc5Cl)CC4)C3)cc21 (stereo not shown) [IND_CC-591, 2-Chloro-N-[6-[8-(2-chloro-4-fluoro-benzoyl)-2,8-diazaspiro[4.5]decane-2-carbonyl]-2,3-dihydro-1H-inden-1-yl]-N-methyl-benzamide]"
6,58%,"CN(C(=O)c1ccc(C(F)(F)F)cn1)C1CCc2ccc(C(=O)N3CCC4(CC3)CCN(c3ccncc3)CC4)cc21 (stereo not shown) [IND_CC-395, N-Methyl-N-[6-(9-pyridin-4-yl-3,9-diazaspiro[5.5]undecane-3-carbonyl)-2,3-dihydro-1H-inden-1-yl]-5-(trifluoromethyl)-pyridine-2-carboxylic acid amide]"
7,73%,"COc1ccc(C(=O)NC2CCc3ccc(C(=O)N4CCC5(CC4)CCN(c4ccc(C(F)(F)F)cc4)CC5)cc32)c(Cl)c1 (stereo not shown) [IND_CC-213, 2-Chloro-4-methoxy-N-[6-[9-[4-(trifluoromethyl)-phenyl]-3,9-diazaspiro[5.5]undecane-3-carbonyl]-2,3-dihydro-1H-inden-1-yl]-benzamide]"
8,103%,"O=C(NC1CCc2ccc(C(=O)N3CCC4(CC3)CCN(c3ccncc3)CC4)cc21)C1CCCC1 (stereo not shown) [IND_CC-391, N-[6-(9-Pyridin-4-yl-3,9-diazaspiro[5.5]undecane-3-carbonyl)-2,3-dihydro-1H-inden-1-yl]-cyclopentanecarboxylic acid amide]"
9,103%,"O=C(NC1CCc2ccc(C(=O)N3CCC4(CC3)CCN(c3ccncc3)CC4)cc21)C1CCCCC1 (stereo not shown) [IND_CC-364, N-[6-(9-Pyridin-4-yl-3,9-diazaspiro[5.5]undecane-3-carbonyl)-2,3-dihydro-1H-inden-1-yl]-cyclohexanecarboxylic acid amide]"

# Same assay, conditions: rat B1R
row,Molecule,% Inhibition (rat B1R) at 10 μM
1,"5-Chloro-2-fluoro-N-[6-[8-[3-(3-fluorophenyl)-propyl]-2,8-diazaspiro[4.5]decane-2-carbonyl]-2,3-dihydro-1H-inden-1-yl]-benzamide [IND_CC-674]",67%
